# Bridge positions count the residues as written; N and C are the ends. Square brackets hold non-standard residues; d marks the D form. Peptide text beside a SMILES is read from it. Hyp = O=C(O)[C@@H]1C[C@@H](O)CN1; Cit = NC(=O)NCCC[C@H](N)C(=O)O
# Columns and labels:
# [1] = target: T1, hAMY3 receptor (Homo sapiens, UniProt O60896+P30988); experiment: cAMP assay for in vitro receptor activation, hAMY3-R; assay type: cell-based; conditions: cAMP assay, hAMY3 receptor; read-out: hAMY3R EC50
# T1 sequence (P30988 25-474): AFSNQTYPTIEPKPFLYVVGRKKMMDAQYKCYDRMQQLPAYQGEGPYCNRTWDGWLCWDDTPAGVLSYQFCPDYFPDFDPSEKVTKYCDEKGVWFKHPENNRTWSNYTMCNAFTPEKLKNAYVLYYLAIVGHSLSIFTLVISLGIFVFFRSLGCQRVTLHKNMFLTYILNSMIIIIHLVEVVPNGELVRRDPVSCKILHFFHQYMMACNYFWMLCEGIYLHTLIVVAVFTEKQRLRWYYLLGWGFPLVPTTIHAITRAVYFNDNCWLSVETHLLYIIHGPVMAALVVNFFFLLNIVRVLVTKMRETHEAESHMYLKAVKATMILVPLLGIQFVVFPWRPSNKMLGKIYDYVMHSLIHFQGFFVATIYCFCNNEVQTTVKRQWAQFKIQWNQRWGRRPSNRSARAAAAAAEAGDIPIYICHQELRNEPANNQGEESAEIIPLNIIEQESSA
# T1 sequence (O60896 24-148 partner): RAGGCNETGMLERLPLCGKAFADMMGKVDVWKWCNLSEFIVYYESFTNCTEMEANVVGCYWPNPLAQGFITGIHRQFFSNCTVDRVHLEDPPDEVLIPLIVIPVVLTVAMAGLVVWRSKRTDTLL
# Procedure, shortened: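 Thawed cells from a sub-cloned monoclonal hAMY3-overexpressing line are plated in DPBS containing 0.05% casein and 0.5 mM IBMX. Test compounds are added immediately at graded doses for 30 min at room temperature. Reagents for cAMP detection are then added, and TR-FRET is recorded after one hour.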
# [2] = Physical stability of peptide analogues (Thioflavin T fibrillation); assay type: physicochemical; conditions: maximum ThT signal normalized between hAMY maximum and buffer background; 40° C., shaking, four days; pH 7 per table title
# Experimental: General Protocols for Determination of Physical Stability of Peptide Analogues
# Peptides were dissolved in buffers (50 mM sodium acetate at pH 4 or 50 mM sodium phosphate at pH 7) and incubated for one hour. The samples were then divided into two replicates of 80 μl in a black 384 well plate (μ-clear, Greiner Bio-One) and mixed with Thioflavin T (ThT) to a final concentration of 4 μM. The plate was sealed and placed in a plate reader (CLARIOstar, BMG) where the temperature was set at 40° C. during the course of the experiment. The samples were further stressed by shaking the plate at 700 rpm (linear) for five minutes before every measurement. The fluorescence was measured every 10 min for four days by exciting the ThT at 450 nm and measuring the emission at 480 nm. For each peptide, the ThT signal over time was smoothened using Local Polynomial Regression fitting (LOESS) as implemented in the statistical programming environment R. For the smoothened data, the maximum ThT signal was normalized in percent between the maximum ThT signal for hAMY and the buffer background.
Compound,EC50 [1] [nM],Max ThT signal (%) [2] [%]
CC[C@H](C)[C@H](NC(=O)[C@H](CCC(N)=O)NC(=O)[C@H](Cc1c[nH]cn1)NC(=O)[C@H](C)NC(=O)[C@H](CC(C)C)NC(=O)[C@H](CCCNC(=N)N)NC(=O)[C@H](CCC(N)=O)NC(=O)[C@@H](NC(=O)[C@@H](NC(=O)[C@@H]1CSSC[C@H](NC(=O)CN)C(=O)N[C@@H](CCCNC(=N)N)C(=O)N[C@@H](Cc2ccccc2)C(=O)NCC(=O)N[C@@H]([C@@H](C)O)C(=O)N1)[C@@H](C)O)C(C)C)C(=O)N[C@@H](Cc1ccc(O)cc1)C(=O)N[C@@H](CCC(N)=O)C(=O)N[C@@H](Cc1ccccc1)C(=O)N[C@H](C(=O)N[C@@H](CC(=O)O)C(=O)N[C@@H](CCCCN)C(=O)N[C@@H](CC(=O)O)C(=O)N[C@@H](CCCCN)C(=O)N[C@@H](CC(=O)O)C(=O)N[C@@H](CC(N)=O)C(=O)N[C@H](C(=O)N[C@@H](C)C(=O)N1CCC[C@H]1C(=O)N[C@@H](CCCNC(=N)N)C(=O)N[C@H](C(=O)N[C@@H](CCCCN)C(=O)N[C@H](C(=O)NCC(=O)N1CCC[C@H]1C(=O)N[C@@H](CCC(N)=O)C(=O)NCC(=O)N1C[C@H](O)C[C@H]1C(N)=O)C(C)C)[C@@H](C)O)C(C)C)[C@@H](C)O [compound 45] (H-GCRFGTCTVQRLAHQIYQFTDKDKDNVAPRTKVGPQG[Hyp]-NH2; disulfide 2-7; N-terminus assumed),0.011,3.000
CC[C@H](C)[C@H](NC(=O)[C@H](CCC(N)=O)NC(=O)[C@H](Cc1c[nH]cn1)NC(=O)[C@H](C)NC(=O)[C@H](CC(C)C)NC(=O)[C@H](CCCNC(=N)N)NC(=O)[C@H](CCC(N)=O)NC(=O)[C@@H](NC(=O)[C@@H](NC(=O)[C@@H]1CSSC[C@H](NC(=O)CN)C(=O)N[C@@H](CCCNC(=N)N)C(=O)N[C@@H]([C@@H](C)O)C(=O)NCC(=O)N[C@@H]([C@@H](C)O)C(=O)N1)[C@@H](C)O)C(C)C)C(=O)N[C@@H](Cc1ccc(O)cc1)C(=O)N[C@@H](CCC(N)=O)C(=O)N[C@@H](Cc1ccccc1)C(=O)N[C@H](C(=O)N[C@@H](CC(=O)O)C(=O)N[C@@H](CCCCN)C(=O)N[C@@H](CC(=O)O)C(=O)N[C@@H](CCCCN)C(=O)N[C@@H](CC(=O)O)C(=O)N[C@@H](CC(N)=O)C(=O)N[C@H](C(=O)N[C@@H](C)C(=O)N1CCC[C@H]1C(=O)N[C@@H](CCCNC(=N)N)C(=O)N[C@H](C(=O)N[C@@H](CC(N)=O)C(=O)N[C@H](C(=O)NCC(=O)N1CCC[C@H]1C(=O)N[C@@H](CCC(N)=O)C(=O)NCC(=O)N1C[C@H](O)C[C@H]1C(N)=O)C(C)C)[C@@H](C)O)C(C)C)[C@@H](C)O [compound 49] (H-GCRTGTCTVQRLAHQIYQFTDKDKDNVAPRTNVGPQG[Hyp]-NH2; disulfide 2-7; N-terminus assumed),0.011,3.200
CC[C@H](C)[C@H](NC(=O)[C@H](CCC(N)=O)NC(=O)[C@H](Cc1c[nH]cn1)NC(=O)[C@H](C)NC(=O)[C@H](CC(C)C)NC(=O)[C@H](CCCNC(=N)N)NC(=O)[C@H](CCC(N)=O)NC(=O)[C@@H](NC(=O)[C@@H](NC(=O)[C@@H]1CSSC[C@H](NC(=O)CN)C(=O)N[C@@H](CCCNC(=N)N)C(=O)N[C@@H]([C@@H](C)O)C(=O)NCC(=O)N[C@@H]([C@@H](C)O)C(=O)N1)[C@@H](C)O)C(C)C)C(=O)N[C@@H](Cc1ccc(O)cc1)C(=O)N[C@@H](CCC(N)=O)C(=O)N[C@@H](Cc1ccccc1)C(=O)N[C@H](C(=O)N[C@@H](CC(=O)O)C(=O)N[C@@H](CCCCN)C(=O)N[C@@H](Cc1ccccc1)C(=O)N[C@@H](CCCCN)C(=O)N[C@@H](CC(=O)O)C(=O)N[C@@H](CC(N)=O)C(=O)N[C@H](C(=O)N[C@@H](C)C(=O)N1CCC[C@H]1C(=O)N[C@@H](CCCNC(=N)N)C(=O)N[C@@H](CO)C(=O)N[C@@H](CCCCN)C(=O)N[C@H](C(=O)N[C@@H](CO)C(=O)N1CCC[C@H]1C(=O)N[C@@H](CCC(N)=O)C(=O)N[C@@H](CCSC)C(=O)N1C[C@H](O)C[C@H]1C(N)=O)[C@@H](C)CC)C(C)C)[C@@H](C)O [compound 236] (H-GCRTGTCTVQRLAHQIYQFTDKFKDNVAPRSKISPQM[Hyp]-NH2; disulfide 2-7; N-terminus assumed),,0.600
CC[C@H](C)[C@H](NC(=O)[C@H](CCC(N)=O)NC(=O)[C@H](Cc1c[nH]cn1)NC(=O)[C@H](C)NC(=O)[C@H](CC(C)C)NC(=O)[C@H](CCCNC(=N)N)NC(=O)[C@H](CCC(N)=O)NC(=O)[C@@H](NC(=O)[C@@H](NC(=O)[C@@H]1CSSC[C@H](NC(=O)CN)C(=O)N[C@@H](CCCNC(=N)N)C(=O)N[C@@H]([C@@H](C)O)C(=O)NCC(=O)N[C@@H]([C@@H](C)O)C(=O)N1)[C@@H](C)O)C(C)C)C(=O)N[C@@H](Cc1ccc(O)cc1)C(=O)N[C@@H](CCC(N)=O)C(=O)N[C@@H](Cc1ccccc1)C(=O)N[C@H](C(=O)N[C@@H](CC(=O)O)C(=O)N[C@@H](CCCCN)C(=O)N[C@@H](Cc1ccccc1)C(=O)N[C@@H](CCCCN)C(=O)N[C@@H](CC(=O)O)C(=O)N[C@@H](CC(N)=O)C(=O)N[C@H](C(=O)N[C@@H](C)C(=O)N1CCC[C@H]1C(=O)N[C@@H](CCCNC(=N)N)C(=O)N[C@@H](CO)C(=O)N[C@@H](CCCCN)C(=O)N[C@H](C(=O)N[C@@H](CO)C(=O)N1CCC[C@H]1C(=O)N[C@@H](CCC(N)=O)C(=O)N[C@H](C(=O)N[C@@H](C)C(N)=O)[C@@H](C)O)[C@@H](C)CC)C(C)C)[C@@H](C)O [compound 241] (H-GCRTGTCTVQRLAHQIYQFTDKFKDNVAPRSKISPQTA-NH2; disulfide 2-7; N-terminus assumed),,0.900
CC[C@H](C)[C@H](NC(=O)[C@H](C)NC(=O)CNC(=O)[C@H](CC(=O)O)NC(=O)[C@H](CCCCN)NC(=O)[C@H](CC(=O)O)NC(=O)[C@@H](NC(=O)[C@H](Cc1ccccc1)NC(=O)[C@H](CCC(N)=O)NC(=O)[C@H](Cc1ccc(O)cc1)NC(=O)[C@H](CC(C)C)NC(=O)[C@H](Cc1ccccc1)NC(=O)[C@H](Cc1c[nH]cn1)NC(=O)[C@H](C)NC(=O)[C@H](CC(C)C)NC(=O)[C@H](CCCNC(N)=O)NC(=O)[C@H](CCC(N)=O)NC(=O)[C@@H](NC(=O)[C@@H](NC(=O)[C@@H]1CSSC[C@H](NC(=O)CN)C(=O)N[C@@H](CCCNC(=N)N)C(=O)N[C@@H](Cc2ccccc2)C(=O)NCC(=O)N[C@@H]([C@@H](C)O)C(=O)N1)[C@@H](C)O)C(C)C)[C@@H](C)O)C(=O)N[C@@H](C)C(=O)N1CCC[C@H]1C(=O)N[C@@H](CCCNC(=N)N)C(=O)N[C@H](C(=O)N[C@@H](CCCCN)C(=O)N[C@H](C(=O)NCC(=O)N[C@@H](CO)C(=O)N[C@@H](CCC(N)=O)C(=O)NCC(=O)N[C@@H](Cc1ccc(O)cc1)C(N)=O)[C@@H](C)CC)[C@@H](C)O [compound 282] (H-GCRFGTCTVQ[Cit]LAHFLYQFTDKDGAIAPRTKIGSQGY-NH2; disulfide 2-7; N-terminus assumed),,4.700
CC[C@H](C)[C@H](NC(=O)[C@H](CCC(N)=O)NC(=O)[C@H](Cc1c[nH]cn1)NC(=O)[C@H](C)NC(=O)[C@H](CC(C)C)NC(=O)[C@H](Cc1c[nH]c2ccccc12)NC(=O)[C@H](CCC(N)=O)NC(=O)[C@@H](NC(=O)[C@@H](NC(=O)[C@@H]1CSSC[C@H](NC(=O)CN)C(=O)N[C@@H](CCCNC(=N)N)C(=O)N[C@@H](Cc2ccccc2)C(=O)NCC(=O)N[C@@H]([C@@H](C)O)C(=O)N1)[C@@H](C)O)C(C)C)C(=O)N[C@@H](Cc1ccc(O)cc1)C(=O)N[C@@H](CCC(N)=O)C(=O)N[C@@H](Cc1ccccc1)C(=O)N[C@H](C(=O)N[C@@H](CC(=O)O)C(=O)N[C@@H](CCCCN)C(=O)N[C@@H](CC(=O)O)C(=O)N[C@@H](CCCCN)C(=O)N[C@@H](CC(=O)O)C(=O)N[C@@H](CC(N)=O)C(=O)N[C@H](C(=O)N[C@@H](C)C(=O)N1CCC[C@H]1C(=O)N[C@@H](CCCNC(=N)N)C(=O)N[C@H](C(=O)N[C@@H](CCCCN)C(=O)N[C@H](C(=O)N[C@@H](CO)C(=O)N1CCC[C@H]1C(=O)N[C@@H](CCC(N)=O)C(=O)NCC(=O)N1C[C@H](O)C[C@H]1C(N)=O)[C@@H](C)CC)[C@@H](C)O)C(C)C)[C@@H](C)O [compound 350] (H-GCRFGTCTVQWLAHQIYQFTDKDKDNVAPRTKISPQG[Hyp]-NH2; disulfide 2-7; N-terminus assumed),,15.700

# From patent US12139520B2 (priority 2020, dated 2024)
